Assay results as given in patent US9447148B2, “Melanocortin-1 receptor-specific cyclic peptides” (Palatin Technologies, Inc., priority 2009, dated 2016).
Bridge positions count the residues as written; N and C are the ends. Square brackets hold non-standard residues; d marks the D form. Peptide text beside a SMILES is read from it. dPhe(4-Me) = Cc1ccc(C[C@@H](N)C(=O)O)cc1; Nle = CCCC[C@H](N)C(=O)O; Orn = NCCC[C@H](N)C(=O)O; Dab = NCC[C@H](N)C(=O)O; Dap = NC[C@H](N)C(=O)O

Assays:
[1] = target: hMCR-1 (Homo sapiens (Human), UniProt Q01726); assay: Assay for agonist activity: intracellular cAMP accumulation in HBL human melanoma cells; type: cell-based; conditions: for EC50: HBL cells expressing hMCR-1, averaged, read-out: MC-1 EC50 (average; cAMP HBL); for MC-1 Emax (average; cAMP HBL): HBL cells, maximum efficacy compared to reference agonist NDP-α-MSH
Protocol: Confluent HBL cells that express hMCR-1 or HEK-293 cells that express recombinant hMCR-4 were detached from culture plates by incubation in enzyme-free cell dissociation buffer. Dispersed cells were suspended in Earle's Balanced Salt Solution containing 10 mM HEPES (pH 7.5), 1 mM MgCl2, 1 mM glutamine, 0.5% albumin and 0.3 mM 3-isobutyl-1-methyl-xanthine (IBMX), a phosphodiesterase inhibitor. The cells were plated in 96-well plates at a density of 0.4×10^5 cells per well for HBL cells and 0.5×10^5 cells per well for HEK-293 cells and pre-incubated for 10 minutes. Cells were exposed for 15 minutes at 37° C. to peptides of the present invention dissolved in DMSO (final DMSO concentration of 1%) at a concentration range of 0.05-5000 nM in a total assay volume of 200 μL. […] Data analysis was performed by nonlinear regression analysis with Graph-Pad Prism® software.
(§1) Peptides of the following structures were synthesized and averaged MCR-1 and MCR-4 Ki values were determined as indicated. […] All results are expressed in nM except for Emax values, which are percentage values. Peptides with the captioned primary sequence were synthesized and purified as described in Section 5 above, with the resulting peptide having the structure depicted.

[2] = target: hMCR-1a (Homo sapiens (Human), UniProt Q01726); assay: Competitive inhibition binding assay using [I125]-NDP-α-MSH, hMCR-1a; conditions: membrane homogenates of HEK-293 cells, human recombinant receptor, averaged, read-out: MC-1 Ki (average)
Protocol: (§2) A competitive inhibition binding assay was performed using membrane homogenates prepared from HEK-293 cells that express recombinant hMCR-1a or hMCR-4 (in each instance where the h prefix refers to human), or alternatively membrane homogenates from B16-F10 mouse melanoma cells containing endogenous murine MCR-1. In the examples that follow, all MCR-1 and MCR-4 values are for human recombinant receptors, unless otherwise noted. Assays were performed in 96 well polypropylene round-bottom plates (VWR catalog number 12777-030). […] After incubation for 90 minutes at 37° C., the assay mixture was filtered onto GF/B Unifilter plates (Perkin-Elmer catalog number 6005177) and washed with 3 mL of ice-cold buffer per well. Filters were air dried and 35 μL of scintillation cocktail added to each well. Plates were counted in a Microbeta counter for bound radioactivity. […] Each assay was conducted in duplicate and the actual mean values are described, with results less than 0% reported as 0%. Ki values for peptides of the present invention were determined using Graph-Pad Prism® curve-fitting software.
as §1

[3] = target: hMCR-4 (Homo sapiens (Human), UniProt P32245); assay: Competitive inhibition binding assay using [I125]-NDP-α-MSH, hMCR-4; conditions: membrane homogenates of HEK-293 cells, human recombinant receptor, averaged, read-out: MC-4 Ki (average)
Protocol: as §2, §1

hMCR-4, sequence (P32245 whole entry): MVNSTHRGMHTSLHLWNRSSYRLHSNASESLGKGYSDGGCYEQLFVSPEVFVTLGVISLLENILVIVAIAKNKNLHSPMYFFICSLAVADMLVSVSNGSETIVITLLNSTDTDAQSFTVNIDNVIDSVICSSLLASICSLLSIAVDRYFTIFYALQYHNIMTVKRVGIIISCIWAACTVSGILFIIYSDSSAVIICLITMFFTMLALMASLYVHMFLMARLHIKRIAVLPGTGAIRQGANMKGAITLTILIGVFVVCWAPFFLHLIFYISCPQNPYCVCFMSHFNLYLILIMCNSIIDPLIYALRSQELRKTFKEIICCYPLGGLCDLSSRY
hMCR-1, sequence (Q01726 whole entry): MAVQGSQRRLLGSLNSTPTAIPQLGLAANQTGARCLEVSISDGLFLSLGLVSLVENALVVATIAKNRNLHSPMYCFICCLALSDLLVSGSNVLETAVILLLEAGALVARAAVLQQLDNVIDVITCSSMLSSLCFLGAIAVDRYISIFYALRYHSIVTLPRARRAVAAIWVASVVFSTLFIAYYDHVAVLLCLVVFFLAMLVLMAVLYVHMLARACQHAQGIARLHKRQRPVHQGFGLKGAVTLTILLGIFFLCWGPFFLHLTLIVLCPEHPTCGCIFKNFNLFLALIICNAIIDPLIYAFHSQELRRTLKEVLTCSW
hMCR-1a, sequence (Q01726 whole entry): as above

| SMILES | EC50 [1] [nM] | Ki [2] [nM] | Ki [3] [nM] | MC-1 Emax (average; cAMP HBL) [1] |
| --- | --- | --- | --- | --- |
| CCCC[C@H](NC(C)=O)C(=O)N[C@H]1CC(=O)NC[C@@H](C(=O)N[C@@H](Cc2c[nH]c3ccccc23)C(N)=O)NC(=O)[C@H](CCCNC(=N)N)NC(=O)[C@@H](Cc2ccccc2)NC(=O)[C@H](Cc2c[nH]cn2)NC1=O [Example 9.4, Ac-Nle-cyclo(Asp-His-D-Phe-Arg-Dap)-Trp-NH2] (Ac-[Nle]DH[dF]R[Dap]W-NH2; lactam 2-6) | 0.195 | 2 | 1320 | – |
| N=C(N)NCCC[C@@H]1NC(=O)[C@@H](Cc2ccccc2)NC(=O)[C@H](Cc2c[nH]cn2)NC(=O)[C@@H](NC(=O)C2CC2)CCC(=O)NCC[C@@H](C(=O)N[C@@H](Cc2c[nH]c3ccccc23)C(N)=O)NC1=O [Example 9.19, cyclo-propanoyl-cyclo(Glu-His-D-Phe-Arg-Dab)-Trp-NH2] | – | 3 | – | – |
| N=C(N)NCCC[C@@H]1NC(=O)[C@@H](Cc2ccccc2)NC(=O)[C@H](Cc2c[nH]cn2)NC(=O)[C@@H](NC(=O)CC2CCCC2)CCC(=O)NCC[C@@H](C(=O)N[C@@H](Cc2c[nH]c3ccccc23)C(N)=O)NC1=O [Example 9.21, cyclopentyl acetyl-cyclo(Glu-His-D-Phe-Arg-Dab)-Trp-NH2] | 0.004 | 0.01 | – | – |
| CCCC[C@H](NC(C)=O)C(=O)N[C@H]1CCC(=O)NCC[C@@H](C(=O)N[C@@H](C)C(N)=O)NC(=O)[C@H](CCCNC(=N)N)NC(=O)[C@@H](Cc2ccccc2)NC(=O)[C@H](Cc2c[nH]cn2)NC1=O [Example 9.25, Ac-Nle-cyclo(Glu-His-D-Phe-Arg-Dab)-Ala-NH2] (Ac-[Nle]EH[dF]R[Dab]A-NH2; lactam 2-6) | 0.08 | 2 | 7480 | – |
| CCCC[C@H](NC(C)=O)C(=O)N[C@H]1CCC(=O)NCC[C@@H](C(=O)N[C@@H](Cc2c[nH]c3ccccc23)C(N)=O)NC(=O)[C@H](CCCNC(=N)N)NC(=O)[C@@H](Cc2ccccc2)NC(=O)[C@H](Cc2c[nH]cn2)NC1=O [Example 9.31, Ac-Nle-cyclo(Glu-His-D-Phe-Arg-Dab)-Trp-OH] | – | – | 10000 | 79% ^ |
| CCCC[C@H](NC(C)=O)C(=O)N[C@H]1CNC(=O)CCC(=O)NCC[C@@H](C(=O)N[C@@H](Cc2c[nH]c3ccccc23)C(N)=O)NC(=O)[C@H](CCCNC(=N)N)NC(=O)[C@@H](Cc2ccccc2)NC(=O)[C@H](Cc2c[nH]cn2)NC1=O [Example 9.43] | – | 0.065 | 860 | – |
| CCCC[C@H](NC(C)=O)C(=O)N[C@H]1CCC(=O)NCC[C@@H](C(N)=O)NC(=O)[C@@H](Cc2ccccc2)NC(=O)[C@H](Cc2c[nH]cn2)NC1=O [Example 9.46, Ac-Nle-cyclo(Glu-His-D-Phe-Dab)-NH2] (Ac-[Nle]EH[dF][Dab]-NH2; lactam 2-5) | – | 10000 | 10000 | – |
| CCCC[C@H](NC(C)=O)C(=O)N[C@H]1CCC(=O)NCC[C@@H](C(=O)N[C@@H](Cc2c[nH]c3ccccc23)C(N)=O)NC(=O)CNC(=O)[C@@H](Cc2ccccc2)NC(=O)[C@H](Cc2c[nH]cn2)NC1=O [Example 9.47, Ac-Nle-cyclo(Glu-His-D-Phe-Gly-Dab)-Trp-NH2] (Ac-[Nle]EH[dF]G[Dab]W-NH2; lactam 2-6) | – | – | – | 59% |
| CCCC[C@H](NC(C)=O)C(=O)N[C@H]1CCC(=O)NCC[C@@H](C(=O)N[C@@H](Cc2c[nH]c3ccccc23)C(N)=O)NC(=O)[C@H](C)NC(=O)[C@@H](Cc2ccccc2)NC(=O)[C@H](Cc2c[nH]cn2)NC1=O [Example 9.48, Ac-Nle-cyclo(Glu-His-D-Phe-Ala-Dab)-Trp-NH2] (Ac-[Nle]EH[dF]A[Dab]W-NH2; lactam 2-6) | – | – | – | 72% ^ |
| CCCC[C@H](NC(C)=O)C(=O)N[C@H]1CCC(=O)NCC[C@@H](C(=O)N[C@@H](Cc2c[nH]c3ccccc23)C(N)=O)NC(=O)[C@H](CCCNC(=N)N)NC(=O)[C@@H](Cc2ccccc2)NC(=O)[C@H](C)NC1=O [Example 9.49, Ac-Nle-cyclo(Glu-Ala-D-Phe-Arg-Dab)-Trp-NH2] | – | – | – | 86% ^ |
| CCCC[C@H](NC(C)=O)C(=O)N[C@H]1CCC(=O)NCC[C@@H](C(=O)N[C@@H](Cc2c[nH]c3ccccc23)C(N)=O)NC(=O)[C@H](CCCNC(=N)N)NC(=O)[C@@H](Cc2ccccc2)NC(=O)[C@H](CCCNC(=N)N)NC1=O [Example 9.50, Ac-Nle-cyclo(Glu-Arg-D-Phe-Arg-Dab)-Trp-NH2] | – | – | – | 100% ^ |
| CCCC[C@H](NC(C)=O)C(=O)N[C@H]1CCC(=O)NCC[C@@H](C(=O)N[C@@H](Cc2c[nH]c3ccccc23)C(N)=O)NC(=O)[C@H](CCCNC(=N)N)NC(=O)[C@@H](Cc2ccccc2)NC(=O)[C@H](CCCNC(N)=O)NC1=O [Example 9.51, Ac-Nle-cyclo(Glu-Cit-D-Phe-Arg-Dab)-Trp-NH2] | – | – | – | 97% ^ |
| CCCC[C@H](NC(C)=O)C(=O)N[C@H]1CCC(=O)NCC[C@@H](C(=O)N[C@@H](CCCCN)C(N)=O)NC(=O)[C@H](CCCNC(=N)N)NC(=O)[C@@H](Cc2ccccc2)NC(=O)[C@H](Cc2c[nH]cn2)NC1=O [Example 9.52, Ac-Nle-cyclo(Glu-His-D-Phe-Arg-Dab)-Lys-NH2] (Ac-[Nle]EH[dF]R[Dab]K-NH2; lactam 2-6) | – | – | – | 91% ^ |
| CCCC[C@H](NC(C)=O)C(=O)N[C@H]1CCC(=O)NCC[C@@H](C(=O)N[C@@H](Cc2c[nH]c3ccccc23)C(N)=O)NC(=O)[C@H](CCCNC(=N)N)NC(=O)[C@@H](Cc2ccccc2)NC(=O)[C@H](CCCCN)NC1=O [Example 9.53, Ac-Nle-cyclo(Glu-Lys-D-Phe-Arg-Dab)-Trp-NH2] | – | – | – | 108% ^ |
| CCCC[C@H](NC(C)=O)C(=O)N[C@H]1CCC(=O)NCC[C@@H](C(=O)N[C@@H](Cc2c[nH]c3ccccc23)C(N)=O)NC(=O)[C@H](CCCNC(=N)N)NC(=O)[C@@H](Cc2ccccc2)NC(=O)[C@H](CCN)NC1=O [Example 9.54, Ac-Nle-cyclo(Glu-Dab-D-Phe-Arg-Dab)-Trp-NH2] | – | – | – | 108% ^ |
| CCCC[C@H](NC(C)=O)C(=O)N[C@H]1CCC(=O)NCC[C@@H](C(=O)N[C@@H](Cc2c[nH]c3ccccc23)C(N)=O)NC(=O)[C@H](CCCNC(=N)N)NC(=O)[C@@H](Cc2ccccc2)NC(=O)[C@H](CCCN)NC1=O [Example 9.55, Ac-Nle-cyclo(Glu-Orn-D-Phe-Arg-Dab)-Trp-NH2] | – | – | – | 109% ^ |
| CCCC[C@H](NC(C)=O)C(=O)N[C@H]1CCC(=O)NCC[C@@H](C(N)=O)NC(=O)[C@H](CCCNC(=N)N)NC(=O)[C@@H](Cc2ccccc2)NC(=O)[C@H](CCCN)NC1=O [Example 9.56, Ac-Nle-cyclo(Glu-Orn-D-Phe-Arg-Dab)-NH2] (Ac-[Nle]E[Orn][dF]R[Dab]-NH2; lactam 2-6) | – | 4 | 3620 | – |
| CCCC[C@H](NC(C)=O)C(=O)N[C@H]1CCC(=O)NCC[C@@H](C(N)=O)NC(=O)[C@H](CCCNC(=N)N)NC(=O)[C@@H](Cc2ccc(C)cc2)NC(=O)[C@H](CCCN)NC1=O [Example 9.63, Ac-Nle-cyclo(Glu-Orn-D-Phe(4-Me)-Arg-Dab)-NH2] (Ac-[Nle]E[Orn][dPhe(4-Me)]R[Dab]-NH2; lactam 2-6) | – | 3 | 10000 | – |
| CCCC[C@H](NC(C)=O)C(=O)N[C@H]1CCC(=O)NCC[C@@H](C(=O)N[C@@H](Cc2c[nH]c3ccccc23)C(N)=O)NC(=O)[C@H](CCCNC(=N)N)NC(=O)[C@@H](Cc2ccccc2)NC(=O)[C@H]2CCCN2C1=O [Example 9.66, Ac-Nle-cyclo(Glu-Pro-D-Phe-Arg-Dab)-Trp-NH2] | – | 3 | 185 | – |
